In patent US8541476B2, “Compounds for treatment of malignant tumors” (The Trustees of the University of Pennsylvania, priority 2007, dated 2013):

How the values were obtained:
zebrafish (ZF) embryos = assay: Zebrafish embryo development and survival after drug plus IR; type: in vivo, Danio rerio
Description: ZF were raised in accordance with previously established protocols (McAleer, et al., 2005, J. Radiat. Oncol. Biol. Phys. 61:10-3) at the University of Pennsylvania School of Medicine. Embryos were maintained at 30° C. after transplantation procedures. The age of embryos is indicated as the hours post-fertilization (hpf) and days post-fertilization (dpf) for all experimental data shown. […] Radiat. Oncol. Biol. Phys. 61:10-3) immediately after photography at 24 hpf. […]
The radiosensitizing effects of NS-123 on human cancer cells but not normal cells prompted us to examine the potential of NS-123 in vivo. Zebra fish (ZF) (Danio rerio) embryos provide an unique vertebrate model that is ideal for the screening of therapeutic agents because of their close genetic and physiological homology to upper level vertebrates such as mammals, their rapid embryonic development, optical clarity, and suitability for investigations regarding the effects of radiation and radiosensitizers (Geiger et al., 2006, Cancer Res. 66:8172-8181; McAleer et al., 2005, Int. J. Radiat. Oncol. Biol. Phys. 61:10-13). These features allow the efficient screening of novel drugs and observation of effects on specific organs without the need for euthanization and necroscopy. The ZF embryos were pretreated for 8 hours with 5 μM NS-123 prior to 6 Gy of radiation.

U251 cells = assay: MIT assay, radiosensitizing effects of NS-160; type: cell-based, human; conditions: U251, 8 hour pretreatment, 0.2 μM, IR dose of 4 Gy
Description: The dose-dependent radiosensitizing effects of NS-160 were investigated using an 8 hour pretreatment of 0.02 μM, 0.2 μM, and 2.0 μM NS-160 in U251 cells (FIG. 9). […] Therefore, NS-160 can act as a true radiosensitizer at low μM concentrations.

CN[C@@H]1C[C@H]2O[C@@](C)([C@@H]1OC)n1c3ccccc3c3c4c(c5c6ccccc6n2c5c31)C(=O)NC4 [Staurosporine]
embryonic development and viability after IR (zebrafish (ZF) embryos; 5 μM NS-123 (1 μM staurosporine) 8 hours before 6 Gy): greatly diminished the viability and development
morphologic effects in developing ZF with IR (zebrafish (ZF) embryos; drug + IR): morphologic changes consistent with increased toxicity

N#Cc1ccc(Br)c([N+](=O)[O-])c1 [NS-160, 4-bromo-3-nitrobenzonitrile]
radiosensitization (U251 cells): Radiosensitization was evident
